What all share (format): functional
The species named for experiment [1] is Mus musculus. The experiment in a line: Compound was evaluated for Carcinogenicity based on concentration necessary to produce one tumor per mouse (Strain A).
The species named for experiment [2] is Mus musculus. Kind of experiment: Compound was evaluated for Carcinogenicity to produce 0.5 tumors per mouse (B.5).
For experiment [3], the species on record is Mus musculus. The experiment in a line: Compound was evaluated for mutagenicity after threshold range.
The species named for experiment [4] is Mus musculus. The experiment in a line: Compound was evaluated for low level mutagenicity.

Consider `NC(=O)Nc1cc(NC(N)=O)cc(N(CCCl)CCCl)c1`, for which the “Log 1/B+1” value in experiment [1] is 4.26. In addition, the “Log 1/B.5” value in experiment [2] stood at 5.43. In addition, the “Log 1/Th+200” value in experiment [3] is on record as -0.01. Moreover, in experiment [4], the “Log 1/B+100” value was 0.31.
As for `ClCCN(CCCl)c1ccc(/C=C/c2ccccc2)cc1`, the “Log 1/Th+200” value in experiment [3] was 2.04. In addition, the “Log 1/B+100” value in experiment [4] worked out at 1.99.

Values taken from ChEMBL document CHEMBL1121662 (1981).
